This passage reports MIC results from ChEMBL document CHEMBL1136374, “Inactivation of S-adenosyl-L-homocysteine hydrolase with novel 5'-thioadenosine derivatives. Antiviral effects” (Bioorg Med Chem Lett, 2003).

Molecules are shown by their SMILES. Converted amounts (≈) assume the structure as drawn.

The assay deals with Vaccinia virus. In words: Cytopathogenicity against vaccinia virus. It is filed as functional. Conditions: Orthopoxvirus vaccinia. For orientation: Damage to the host cells serves as the signal in cytopathic effect assays.

On to `C=CSC[C@H]1OC(n2cnc3c(N)ncnc32)[C@H](O)[C@@H]1O` (stereo partly specified), for which the MIC is 30 µM (≈ 9.28 µg/mL).
